In patent US11702422B2, “Imidazopyridazines as modulators of IL-17” (Janssen Pharmaceutica NV, priority 2020, dated 2023):

Key:
[1] = target: IL-17A(FLAG-Tagged): IL-17RA(His-Tagged) (Homo sapiens, UniProt Q16552, K93Q); assay: IL-17A(FLAG-Tagged): IL-17RA(His-Tagged) Binding Disruption Eu-HTRF Assay; conditions: IL-17A/IL-17RA binding disruption, simple average if tested more than once
Outline: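 IC50 comes from a one-site competition fit of the HTRF 665/620 nm ratio. Compound dilutions (2-fold, 22 points) were held 1 h rt with FLAG-tagged IL-17A dimer, then His-tagged IL-17RA plus Eu-cryptate anti-FLAG and D2 anti-His antibodies were added for 2 h rt.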

[2] = system: IL-17A-induced G-CSF production in human normal keratinocyte (NHK); assay: NHK Assay: IL-17A-induced G-CSF production in human normal keratinocytes; type: cell-based; conditions: 24 h, adult normal human keratinocytes, IL-17A 5 ng/mL, simple average if tested more than once
Outline: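 Inhibition of IL-17A-driven G-CSF release is measured in adult keratinocytes stimulated for 24 h at 37° C with 5 ng/mL human IL-17A that had been pre-incubated with compound for 1 h. IC50 comes from HTRF G-CSF levels; cell viability is checked in parallel by luminescent ATP assay.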

Sequence of UniProt Q16552 (Q16552 with tags, fused parts or gaps K93Q): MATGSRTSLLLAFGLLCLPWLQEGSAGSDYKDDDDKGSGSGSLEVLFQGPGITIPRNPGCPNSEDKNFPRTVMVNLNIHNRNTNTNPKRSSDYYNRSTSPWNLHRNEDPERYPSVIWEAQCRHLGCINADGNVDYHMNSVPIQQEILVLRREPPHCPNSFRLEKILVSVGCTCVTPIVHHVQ

Row | SMILES | IC50 [1] | IC50 ([2]; Homo sapiens, Keratinocyte) | IC50 [2]
1 | CC(C)n1nccc1C(=O)N[C@H](c1cn2ncc([C@H](NC(=O)CCCF)C3CC3)cc2n1)C1CCC(F)(F)CC1 [Example 251, N—((S)-(7-((R)-Cyclopropyl(4-fluorobutanamido)methyl)imidazo[1,2-b]pyridazin-2-yl)(4,4-difluorocyclohexyl)methyl)-1-isopropyl-1H-pyrazole-5-carboxamide] | 200 nM | 770 nM | –
2 | CC(C)n1nccc1C(=O)N[C@H](c1cn2ncc(C(NC(=O)CC3CC(F)(F)C3)C(F)(F)F)cc2n1)C1CCC(F)(F)CC1 (single isomer, unassigned) [Example 422, N—((S)-(7-((S*)-1-(2-(3,3-Difluorocyclobutyl)acetamido)-2,2,2-trifluoroethyl)imidazo[1,2-b]pyridazin-2-yl)(4,4-difluorocyclohexyl)methyl)-1-isopropyl-1H-pyrazole-5-carboxamide] | 260 nM | 82 nM | –
3 | O=C(CCC(F)F)N[C@@H](c1cnn2cc([C@@H](NC(=O)c3nonc3OCC(F)F)C3CCC(F)(F)CC3)nc2c1)C1CC1 [Example 390, N—((S)-(7-((R)-Cyclopropyl(4,4-difluorobutanamido)methyl)imidazo[1,2-b]pyridazin-2-yl)(4,4-difluorocyclohexyl)methyl)-4-(2,2-difluoroethoxy)-1,2,5-oxadiazole-3-carboxamide] | 86 nM | 130 nM | –
4 | Cc1nonc1C(=O)N[C@H](c1cn2ncc(C(NC(=O)CC3(C(F)(F)F)CC3)C3(C#N)CC3)cc2n1)C1CCC(F)(F)CC1 (single isomer, unassigned) [Example 427, N—((S)-(7-((S*)-(1-Cyanocyclopropyl)(2-(1-(trifluoromethyl)cyclopropyl)acetamido)methyl)imidazo[1,2-b]pyridazin-2-yl)(4,4-difluorocyclohexyl)methyl)-4-methyl-1,2,5-oxadiazole-3-carboxamide] | 100 nM | – | 370 nM
5 | CC(C)(O)c1nonc1C(=O)N[C@H](c1cn2ncc([C@H](NC(=O)CC3CC(F)(F)C3)C3CC3)cc2n1)C1CCC(F)(F)CC1 [Example 410, N—((S)-(7-((R)-Cyclopropyl(2-(3,3-difluorocyclobutyl)acetamido)methyl)imidazo[1,2-b]pyridazin-2-yl)(4,4-difluorocyclohexyl)methyl)-4-(2-hydroxypropan-2-yl)-1,2,5-oxadiazole-3-carboxamide] | 120 nM | 230 nM | –
6 | Cc1nonc1C(=O)N[C@H](c1cn2ncc([C@H](NC(=O)[C@@]34C[C@@H]3[C@@H](F)C4)C3CC3)cc2n1)C1CCC(F)(F)CC1 (relative stereo) [Example 341, N—((S)-(7-((R)-Cyclopropyl((1R*,3S*,4S*)-3-fluorobicyclo[2.1.0]pentane-1-carboxamido)methyl)imidazo[1,2-b]pyridazin-2-yl)(4,4-difluorocyclohexyl)methyl)-4-methyl-1,2,5-oxadiazole-3-carboxamide] | 4800 nM | > 20000 nM | –
7 | CC(C)n1nccc1C(=O)N[C@H](c1cn2ncc([C@H](NC(=O)COCC(F)F)C3CC3)cc2n1)C1CCC(F)(F)CC1 [Example 305, N—((S)-(7-((R)-Cyclopropyl(2-(2,2-difluoroethoxy)acetamido)methyl)imidazo[1,2-b]pyridazin-2-yl)(4,4-difluorocyclohexyl)methyl)-1-isopropyl-1H-pyrazole-5-carboxamide] | 140 nM | 1100 nM | –
8 | CC(C)n1nccc1C(=O)N[C@H](c1cn2ncc([C@H](NC(=O)CC(C)(C)C(F)(F)F)C3CC3)cc2n1)C1CCC(F)(F)CC1 [Example 254, N—((S)-(7-((R)-Cyclopropyl(4,4,4-trifluoro-3,3-dimethylbutanamido)methyl)imidazo[1,2-b]pyridazin-2-yl)(4,4-difluorocyclohexyl)methyl)-1-isopropyl-1H-pyrazole-5-carboxamide] | 290 nM | 200 nM | –
9 | O=C(CC1CC(F)(F)C1)N[C@@H](c1cnn2cc([C@@H](NC(=O)c3nonc3N3CCOCC3)C3CCC(F)(F)CC3)nc2c1)C1CC1 [Example 408, N—((S)-(7-((R)-Cyclopropyl(2-(3,3-difluorocyclobutyl)acetamido)methyl)imidazo[1,2-b]pyridazin-2-yl)(4,4-difluorocyclohexyl)methyl)-4-morpholino-1,2,5-oxadiazole-3-carboxamide] | 54 nM | 370 nM | –

Now from value to compound, other results behind:

Row | IC50 [1] | SMILES | IC50 ([2]; Homo sapiens, Keratinocyte) | IC50 [2]
10 | 60 nM | O=C(CCC(F)(F)F)N[C@@H](c1cnn2cc([C@@H](NC(=O)c3nocc3CC(F)(F)F)C3CCC(F)(F)CC3)nc2c1)C1CC1 [Example 377, N—((S)-(7-((R)-Cyclopropyl(4,4,4-trifluorobutanamido)methyl)imidazo[1,2-b]pyridazin-2-yl)(4,4-difluorocyclohexyl)methyl)-4-(2,2,2-trifluoroethyl)isoxazole-3-carboxamide] | 85 nM | –
11 | 230 nM | COc1cncc(C(=O)N[C@H](c2cn3ncc([C@H](NC(=O)CCC(F)(F)F)C4CC4)cc3n2)C2CCC(F)(F)CC2)c1 [Example 189, N—((S)-(7-((R)-Cyclopropyl(4,4,4-trifluorobutanamido)methyl)imidazo[1,2-b]pyridazin-2-yl)(4,4-difluorocyclohexyl)methyl)-5-methoxynicotinamide] | 810 nM | –
12 | 48 nM | O=C(CCC(F)(F)F)N[C@@H](c1cnn2cc([C@@H](NC(=O)c3ccnc(OCC(F)(F)F)c3)C3CCC(F)(F)CC3)nc2c1)C1CC1 [Example 171, N—((S)-(7-((R)-Cyclopropyl(4,4,4-trifluorobutanamido)methyl)imidazo[1,2-b]pyridazin-2-yl)(4,4-difluorocyclohexyl)methyl)-2-(2,2,2-trifluoroethoxy)isonicotinamide] | 320 nM | –
13 | 410 nM | O=C(CCC(F)(F)F)N[C@@H](c1cnn2cc([C@@H](NC(=O)c3nnn(C4CC4)c3C(F)F)C3CCC(F)(F)CC3)nc2c1)C1CC1 [Example 110, 1-Cyclopropyl-N—((S)-(7-((R)-cyclopropyl(4,4,4-trifluorobutanamido)methyl)imidazo[1,2-b]pyridazin-2-yl)(4,4-difluorocyclohexyl)methyl)-5-(difluoromethyl)-1H-1,2,3-triazole-4-carboxamide] | > 20000 nM | –
14 | 160 nM | CC1(c2nocc2C(=O)N[C@H](c2cn3ncc([C@H](NC(=O)CCC(F)(F)F)C4CC4)cc3n2)C2CCC(F)(F)CC2)COC1 [Example 100, N—[(S)-[7-[(R)-Cyclopropyl-(4,4,4-trifluorobutanoylamino)methyl]imidazo[1,2-b]pyridazin-2-yl]-(4,4-difluorocyclohexyl)methyl]-3-(3-methyloxetan-3-yl)isoxazole-4-carboxamide] | 85 nM | –
15 | 51 nM | O=C(CCC(F)(F)F)N[C@@H](c1cnn2cc([C@@H](NC(=O)c3nonc3OCC(F)F)C3CCC(F)(F)CC3)nc2c1)C1CC1 [Example 383, N—((S)-(7-((R)-Cyclopropyl(4,4,4-trifluorobutanamido)methyl)imidazo[1,2-b]pyridazin-2-yl)(4,4-difluorocyclohexyl)methyl)-4-(2,2-difluoroethoxy)-1,2,5-oxadiazole-3-carboxamide] | 19 nM | –
16 | 63 nM | O=C(CCC(F)(F)F)N[C@@H](c1cnn2cc([C@@H](NC(=O)c3cnnn3CC3CC3)C3CCC(F)(F)CC3)nc2c1)C1CC1 [Example 48, N—((S)-(7-((R)-Cyclopropyl(4,4,4-trifluorobutanamido)methyl)imidazo[1,2-b]pyridazin-2-yl)(4,4-difluorocyclohexyl)methyl)-1-(cyclopropylmethyl)-1H-1,2,3-triazole-5-carboxamide] | 160 nM | –
17 | 67 nM | CC(C)c1nocc1C(=O)N[C@H](c1cn2ncc([C@H](NC(=O)CCC(F)(F)F)C3CC3)cc2n1)C1CCC(F)(F)CC1 [Example 76, N—((S)-(7-((R)-Cyclopropyl(4,4,4-trifluorobutanamido)methyl)imidazo[1,2-b]pyridazin-2-yl)(4,4-difluorocyclohexyl)methyl)-3-isopropylisoxazole-4-carboxamide] | 67 nM | –
18 | 32 nM | O=C(CCC(F)(F)F)N[C@@H](c1cnn2cc([C@@H](NC(=O)c3cncc(CC(F)F)c3)C3CCC(F)(F)CC3)nc2c1)C1CC1 [Example 152, N—((S)-(7-((R)-Cyclopropyl(4,4,4-trifluorobutanamido)methyl)imidazo[1,2-b]pyridazin-2-yl)(4,4-difluorocyclohexyl)methyl)-5-(2,2-difluoroethyl)nicotinamide] | 180 nM | –
19 | 49 nM | O=C(CCC(F)(F)F)N[C@@H](c1cnn2cc([C@@H](NC(=O)c3ncnn3CCOC(F)(F)F)C3CCC(F)(F)CC3)nc2c1)C1CC1 [Example 70, N—((S)-(7-((R)-Cyclopropyl(4,4,4-trifluorobutanamido)methyl)imidazo[1,2-b]pyridazin-2-yl)(4,4-difluorocyclohexyl)methyl)-1-(2-(trifluoromethoxy)ethyl)-1H-1,2,4-triazole-5-carboxamide] | 110 nM | –
20 | 16000 nM | O=C(CCC(F)(F)F)N[C@@H](c1cnn2cc([C@@H](NC(=O)c3cccc(C(F)(F)F)n3)C3CCC(F)(F)CC3)nc2c1)C1CC1 [Example 221, N—((S)-(7-((R)-Cyclopropyl(4,4,4-trifluorobutanamido)methyl)imidazo[1,2-b]pyridazin-2-yl)(4,4-difluorocyclohexyl)methyl)-6-(trifluoromethyl)picolinamide] | > 20000 nM | –
